Key:
Assay type in all cases: in vivo
[1] = system: redroot pigweed (Amaranthus retroflexus); test: Test G Post-Emergence Protocol; conditions: Amaranthus retroflexus, post-emergence, 312 h, read-out: Pigweed, Redroot damage rating
In short: (§1)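 Seedlings grown 8 days in soil in a glasshouse (24/16 °C day/night, 14 h light, 65% humidity) were sprayed post-emergence with compound in acetone/water 50:50 plus 0.5% Tween 20 at 15.625, 62.5 or 250 g/ha. Damage was scored after 13 days on a 0–100 scale (100 = total damage).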

[2] = system: corn (Zea mays); test: Test G Post-Emergence Protocol; conditions: Zea mays, post-emergence, 312 h, read-out: Corn damage rating
In short: as §1

[3] = system: barnyardgrass (Echinochloa crus-galli); test: Test G Post-Emergence Protocol; conditions: Echinochloa crus-galli, post-emergence, 312 h, read-out: Barnyardgrass damage rating
In short: as §1

[4] = system: velvetleaf (Abutilon theophrasti); test: Test G Post-Emergence Protocol; conditions: Abutilon theophrasti, post-emergence, 312 h, read-out: Velvetleaf damage rating
In short: as §1

[5] = system: giant foxtail (Setaria faberi); test: Test G Post-Emergence Protocol; conditions: Setaria faberi, post-emergence, 312 h, read-out: Foxtail, Giant damage rating
In short: as §1

[6] = system: ivy-leaved morning glory (Ipomoea hederacea); test: Test G Post-Emergence Protocol; conditions: Ipomoea, post-emergence, 312 h, read-out: Morningglory, Ivy-leaved damage rating
In short: as §1

[7] = system: redroot pigweed (Amaranthus retroflexus); test: Test G Pre-Emergence Protocol; conditions: Amaranthus retroflexus, pre-emergence, 312 h, evaluated after 13 days
In short: (§2)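 Pre-emergence spray, 15.625/62.5/250 g/ha, vehicle acetone:water 50:50 + 0.5% Tween 20, applied 1 d after sowing. Glasshouse 24/16° C, 14 h light, 65% RH, watered twice daily. Visual damage rating at 13 d, 0–100 scale.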

[8] = system: corn (Zea mays); test: Test G Pre-Emergence Protocol; conditions: Zea mays, pre-emergence, 312 h, evaluated after 13 days
In short: as §2

[9] = system: barnyardgrass (Echinochloa crus-galli); test: Test G Pre-Emergence Protocol; conditions: Echinochloa crus-galli, pre-emergence, 312 h, evaluated after 13 days
In short: as §2

[10] = system: velvetleaf (Abutilon theophrasti); test: Test G Pre-Emergence Protocol; conditions: Abutilon theophrasti, pre-emergence, 312 h, evaluated after 13 days
In short: as §2

[11] = system: giant foxtail (Setaria faberi); test: Test G Pre-Emergence Protocol; conditions: Setaria faberi, pre-emergence, 312 h, evaluated after 13 days
In short: as §2

[12] = system: ivy-leaved morning glory (Ipomoea hederacea); test: Test G Pre-Emergence Protocol; conditions: Ipomoea, pre-emergence, 312 h, evaluated after 13 days
In short: as §2

[13] = 15.625 g ai/ha, evaluated after 13 days (100=total damage to plant; 0=no damage to plant)
[14] = 62.5 g ai/ha, evaluated after 13 days, 100=total damage to plant, 0=no damage to plant
[15] = 250 g ai/ha, evaluated after 13 days, 100=total damage to plant, 0=no damage to plant

COc1c(F)cc(C2CN(C)C(=O)C2C(=O)Nc2cccc(F)c2F)cc1F (stereo not drawn) [Compound 1702]
80%: plant injury at 250 g/ha [2, 15] | pest or weed control at 250 g/ha [3, 15] | pest or weed control at 62.5 g/ha [5, 14] | pest or weed control at 250 g/ha [5, 15] | pest or weed control at 62.5 g/ha ([11]; 62.5 g ai/ha, 100=total damage to plant, 0=no damage to plant, read-out: Foxtail, Giant damage rating)
20%: plant injury at 15.625 g/ha [2, 13] | plant injury at 62.5 g/ha [2, 14] | pest or weed control at 62.5 g/ha [4, 14] | plant injury at 15.625 g/ha ([8]; 15.625 g ai/ha, read-out: Corn damage rating (100=total damage to plant; 0=no damage to plant))
50%: pest or weed control at 250 g/ha ([7]; 250 g ai/ha, read-out: Pigweed, Redroot damage rating (100=total damage to plant; 0=no damage to plant)) | pest or weed control at 15.625 g/ha ([9]; 15.625 g ai/ha, read-out: Barnyardgrass damage rating (100=total damage to plant; 0=no damage to plant))
70%: pest or weed control at 62.5 g/ha [3, 14] | pest or weed control at 250 g/ha [4, 15] | pest or weed control at 15.625 g/ha [5, 13] | pest or weed control at 250 g/ha [6, 15] | plant injury at 62.5 g/ha ([8]; 62.5 g ai/ha, 100=total damage to plant, 0=no damage to plant, read-out: Corn damage rating) | pest or weed control at 62.5 g/ha ([9]; 62.5 g ai/ha, 100=total damage to plant, 0=no damage to plant, read-out: Barnyardgrass damage rating) | pest or weed control at 250 g/ha ([10]; 250 g ai/ha, read-out: Velvetleaf damage rating (100=total damage to plant; 0=no damage to plant)) | pest or weed control at 15.625 g/ha ([11]; 15.625 g ai/ha, read-out: Foxtail, Giant damage rating (100=total damage to plant; 0=no damage to plant))
40%: pest or weed control at 250 g/ha [1, 15] | pest or weed control at 250 g/ha ([12]; 250 g ai/ha, read-out: Morningglory, Ivy-leaved damage rating (100=total damage to plant; 0=no damage to plant))
30%: pest or weed control at 62.5 g/ha ([12]; 62.5 g ai/ha, 100=total damage to plant, 0=no damage to plant, read-out: Morningglory, Ivy-leaved damage rating)
60%: pest or weed control at 15.625 g/ha [3, 13] | pest or weed control at 62.5 g/ha [6, 14]
10%: pest or weed control at 15.625 g/ha [1, 13] | pest or weed control at 62.5 g/ha [1, 14] | pest or weed control at 15.625 g/ha [4, 13] | pest or weed control at 15.625 g/ha [6, 13] | pest or weed control at 62.5 g/ha ([10]; 62.5 g ai/ha, 100=total damage to plant, 0=no damage to plant, read-out: Velvetleaf damage rating)
0%: pest or weed control at 15.625 g/ha ([7]; 15.625 g ai/ha, read-out: Pigweed, Redroot damage rating (100=total damage to plant; 0=no damage to plant)) | pest or weed control at 62.5 g/ha ([7]; 62.5 g ai/ha, 100=total damage to plant, 0=no damage to plant, read-out: Pigweed, Redroot damage rating) | pest or weed control at 15.625 g/ha ([10]; 15.625 g ai/ha, read-out: Velvetleaf damage rating (100=total damage to plant; 0=no damage to plant)) | pest or weed control at 15.625 g/ha ([12]; 15.625 g ai/ha, read-out: Morningglory, Ivy-leaved damage rating (100=total damage to plant; 0=no damage to plant))
90%: plant injury at 250 g/ha ([8]; 250 g ai/ha, read-out: Corn damage rating (100=total damage to plant; 0=no damage to plant)) | pest or weed control at 250 g/ha ([9]; 250 g ai/ha, read-out: Barnyardgrass damage rating (100=total damage to plant; 0=no damage to plant)) | pest or weed control at 250 g/ha ([11]; 250 g ai/ha, read-out: Foxtail, Giant damage rating (100=total damage to plant; 0=no damage to plant))

From patent US12077503B2, “Substituted cyclic amides and their use as herbicides” (FMC CORPORATION, priority 2015, dated 2024)
